Experimental data reported in patent publication US8895585B2, “Nicotinamide derivative or salt thereof” (FUJIFILM Corporation, priority 2010, dated 2014).
Like-named read-outs stand apart in the source and are kept apart here.

Target: T1, glutathione S-transferase (GST)-fused full-length human Syk protein (Homo sapiens, UniProt P43405)
T1 construct: (GST)-fused full-length human Syk protein; GST (glutathione S-transferase); purchased Carna Biosciences
Assay: Syk enzyme assay
Type: biochemical
Procedure, shortened: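 GST-tagged full-length human Syk (baculovirus) preincubated with compound 15 min at room temperature (pH 7.0, 10 mM MgCl2), then reacted 40 min with 0.4 μM biotinylated peptide substrate and 27 μM ATP (final). Phosphorylation read by HTRF (615/665 nm) after EDTA stop; IC50 reported.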

[1] = Syk enzyme assay, Test Example 1, read-out: IC50 of Syk-inhibitory activity
[2] = read-out: Syk-inhibitory activity (IC50)

| IC50 [1] [nM] | IC50 [2] [nM] | SMILES |
| --- | --- | --- |
| 10 to 50 | – | COc1ncc(Nc2nc(NC3CCCCC3N)c(F)cc2C(N)=O)cc1C (stereo not shown) [Example 002-152] |
| 10 to 50 | – | COc1ncc(Nc2nc(NC3CCCCC3N)c(F)cc2C(N)=O)cc1C1CC1 (stereo not shown) [Example 002-153] |
| 10 to 50 | – | COc1ncc(Nc2nc(NC3CCCCC3N)c(F)cc2C(N)=O)cc1-n1cccn1 (stereo not shown) [Example 002-154] |
| 50 to 100 | – | NC(=O)c1cc(F)c(NC2CCCCC2N)nc1Nc1ccc(N2CCCC2=O)nc1 (stereo not shown) [Example 002-156] |
| 100 to 1000 | – | NC(=O)c1cc(F)c(NC2CCCCC2N)nc1Nc1ccc(N2CCCCC2=O)nc1 (stereo not shown) [Example 002-157] |
| 100 to 1000 | – | CC1(C)Oc2cccnc2N(c2ccc(Nc3nc(NC4CCCCC4N)c(F)cc3C(N)=O)cn2)C1=O (stereo not shown) [Example 002-159] |
| 50 to 100 | – | NC(=O)c1cc(F)c(NC2CCCCC2N)nc1Nc1ccc(-n2nccn2)nc1 (stereo not shown) [Example 002-161] |
| 100 to 1000 | – | NC(=O)c1cc(F)c(NC2CCCCC2N)nc1Nc1ccc(N2CCOCC2=O)nc1 (stereo not shown) [Example 002-162] |
| 50 to 100 | – | Cc1cc(Nc2nc(NC3CCCCC3N)c(F)cc2C(N)=O)c(F)cn1 (stereo not shown) [Example 002-164] |
| 100 to 1000 | – | NC(=O)c1cc(F)c(NC2CCCCC2N)nc1Nc1cc(N2CCOCC2)ncc1F (stereo not shown) [Example 002-166] |
| 10 to 50 | – | NC(=O)c1cc(F)c(NC2CCCCC2N)nc1Nc1ccnc(-c2ccccc2)c1F (stereo not shown) [Example 002-167] |
| 10 to 50 | – | NC(=O)c1cc(F)c(NC2CCCCC2N)nc1Nc1cc(-c2ccccc2)ncc1F (stereo not shown) [Example 002-168] |
| 50 to 100 | – | COc1cc(-c2cncc(Nc3nc(NC4CCCCC4N)c(F)cc3C(N)=O)c2)cc(OC)c1OC (stereo not shown) [Example 002-171] |
| 50 to 100 | – | NC(=O)c1cc(F)c(NC2CCCCC2N)nc1Nc1cncc(-c2ccc(OC(F)(F)F)cc2)c1 (stereo not shown) [Example 002-174] |
| < 10 | – | NC(=O)c1cc(F)c(NC2CCCCC2N)nc1Nc1ccnc(-c2ccc3c(c2)OCO3)c1 (stereo not shown) [Example 002-176] |
| < 10 | – | NC(=O)c1cc(F)c(NC2CCCCC2N)nc1Nc1cncc(-c2ccc3c(c2)NC(=O)CO3)c1 (stereo not shown) [Example 002-177] |
| < 10 | – | NC(=O)c1cc(F)c(NC2CCCCC2N)nc1Nc1ccnc(-c2ccc3c(c2)NC(=O)CO3)c1 (stereo not shown) [Example 002-178] |
| 50 to 100 | – | NC(=O)c1cc(F)c(NC2CCCCC2N)nc1Nc1cncc(-c2cccc3cnccc23)c1 (stereo not shown) [Example 002-179] |
| 50 to 100 | – | NC(=O)c1cc(F)c(NC2CCCCC2N)nc1Nc1ccnc(-c2cccc3cnccc23)c1 (stereo not shown) [Example 002-180] |
| 50 to 100 | – | NC(=O)c1cc(F)c(NC2CCCCC2N)nc1Nc1cncc(-c2cccc3cccnc23)c1 (stereo not shown) [Example 002-181] |
| 100 to 1000 | – | NC(=O)c1cc(F)c(NC2CCCCC2N)nc1Nc1ccnc(-c2cccc3cccnc23)c1 (stereo not shown) [Example 002-182] |
| < 10 | – | COc1cccc(-c2cc(Nc3nc(NC4CCCCC4N)c(F)cc3C(N)=O)ccn2)c1 (stereo not shown) [Example 002-183] |

| IC50 [1] [nM] | IC50 [2] [nM] | SMILES |
| --- | --- | --- |
| < 10 | – | COc1ccc(-c2cc(Nc3nc(NC4CCCCC4N)c(F)cc3C(N)=O)ccn2)cc1 (stereo not shown) [Example 002-184] |
| < 10 | – | NC(=O)c1cc(F)c(NC2CCCCC2N)nc1Nc1ccnc(-c2ccc3cccnc3c2)c1 (stereo not shown) [Example 002-192] |
| < 10 | – | NC(=O)c1cc(F)c(NC2CCCCC2N)nc1Nc1ccnc(-c2ccc3ccncc3c2)c1 (stereo not shown) [Example 002-194] |
| < 10 | – | NC(=O)c1cc(F)c(NC2CCCCC2N)nc1Nc1cnc2oc3ccccc3c2c1 (stereo not shown) [Example 002-195] |
| 100 to 1000 | – | Cn1cc(Nc2nc(NC3CCCCC3N)c(F)cc2C(N)=O)ccc1=O (stereo not shown) [Example 002-202] |
| 10 to 50 | – | COc1ncc(Nc2nc(NC3CCCCC3N)c(F)cc2C(N)=O)cc1Cl (stereo not shown) [Example 002-203] |
| 100 to 1000 | – | NC(=O)c1cc(F)c(N[C@@H]2CCCC[C@@H]2N)nc1Nc1cncnc1 [Example 004-001] |
| < 10 | – | NC(=O)c1cc(F)c(N[C@@H]2CCCC[C@@H]2N)nc1Nc1cccc2c1CNC2=O [Example 004-009] |
| 10 to 50 | – | CNC(=O)c1cncc(Nc2nc(N[C@@H]3CCCC[C@@H]3N)c(F)cc2C(N)=O)c1 [Example 004-010] |
| 100 to 1000 | – | CN(C)C(=O)c1cncc(Nc2nc(N[C@@H]3CCCC[C@@H]3N)c(F)cc2C(N)=O)c1 [Example 004-015] |
| 100 to 1000 | – | NC(=O)c1cc(F)c(N[C@@H]2CCCC[C@@H]2N)nc1Nc1cnc2nccnc2c1 [Example 004-021] |
| 50 to 100 | – | CC(=O)N(C)c1cccc2cc(Nc3nc(N[C@@H]4CCCC[C@@H]4N)c(F)cc3C(N)=O)cnc12 [Example 004-034] |
| < 10 | – | NC(=O)c1cc(F)c(N[C@@H]2CCCC[C@@H]2N)nc1Nc1ccnc2c1ccn2-c1ccccc1 [Example 004-038] |
| 50 to 100 | – | NC(=O)c1cc(F)c(N[C@@H]2CCCC[C@@H]2N)nc1Nc1cncc(Oc2ccccc2)c1 [Example 004-041] |
| 10 to 50 | – | NC(=O)c1cc(F)c(N[C@H](Cc2ccccc2)C(N)=O)nc1Nc1ccnc2c1ccn2CCN1CCOCC1 [Example 004-045] |
| 10 to 50 | – | CC(=O)Nc1cccc2cc(Nc3nc(N[C@H](Cc4ccccc4)C(N)=O)c(F)cc3C(N)=O)cnc12 [Example 004-047] |
| < 10 | – | NC(=O)c1cc(F)c(N[C@H](Cc2ccccc2)C(N)=O)nc1Nc1ccnc2[nH]ccc12 [Example 004-063] |
| < 10 | – | Cn1ccc2c(Nc3nc(N[C@@H]4CCCC[C@@H]4N)c(F)cc3C(N)=O)cc(C(F)(F)F)cc21 [Example 004-086] |
| < 10 | – | NC(=O)c1cc(F)c(N[C@@H]2CCCC[C@@H]2N)nc1Nc1cc(C(F)(F)F)cc2c1ccn2CCN1CCOCC1 [Example 004-087] |
| < 10 | – | COCCn1ccc2c(Nc3nc(N[C@@H]4CCCC[C@@H]4N)c(F)cc3C(N)=O)cc(C(F)(F)F)cc21 [Example 004-088] |
| 10 to 50 | – | NC(=O)c1cc(F)c(N[C@@H]2CCCC[C@@H]2N)nc1Nc1cncc(N2CCCC2=O)c1 [Example 004-107] |
| < 10 | – | CCOC(=O)c1c(F)cc2c(Nc3nc(N[C@@H]4CCCC[C@@H]4N)c(F)cc3C(N)=O)cccn12 [Example 004-115] |

| IC50 [1] [nM] | IC50 [2] [nM] | SMILES |
| --- | --- | --- |
| < 10 | – | COCCNc1cccc2cc(Nc3nc(N[C@@H]4CCCC[C@@H]4N)c(F)cc3C(N)=O)cnc12 [Example 004-122] |
| 10 to 50 | – | CN(C)c1ccc2cc(Nc3nc(N[C@@H]4CCCC[C@@H]4N)c(F)cc3C(N)=O)cnc2c1 [Example 004-126] |
| 10 to 50 | – | CCOCCOCCNc1cccc2cc(Nc3nc(N[C@@H]4CCCC[C@@H]4N)c(F)cc3C(N)=O)cnc12 [Example 004-133] |
| 10 to 50 | – | C[C@@H]1CN(c2cncc(Nc3nc(N[C@@H]4CCCC[C@@H]4N)c(F)cc3C(N)=O)c2)C[C@H](C)O1 [Example 004-180] |
| 10 to 50 | – | NC(=O)c1cc(F)c(N[C@@H]2CCCC[C@@H]2N)nc1Nc1cncc(-c2ccccc2OCC2CC2)c1 [Example 004-184] |
| 10 to 50 | – | NC(=O)c1cc(F)c(N[C@@H]2CCCC[C@@H]2N)nc1Nc1ccn2cnnc2c1 [Example 004-212] |
| < 10 | – | CC(=O)Nc1cccc(-c2cncc(Nc3nc(N[C@@H]4CCCC[C@@H]4N)c(F)cc3C(N)=O)c2)c1 [Example 004-223] |
| < 10 | – | CC(=O)Nc1ccc(-c2cncc(Nc3nc(N[C@@H]4CCCC[C@@H]4N)c(F)cc3C(N)=O)c2)cc1 [Example 004-224] |
| 100 to 1000 | – | COc1cc(Nc2nc(N[C@@H]3CCCC[C@@H]3N)c(F)cc2C(N)=O)cnc1N1CCOCC1 [Example 004-233, 6-(((1R,2S)-2-aminocyclohexyl)amino)-5-fluoro-2-((5-methoxy-6-morpholinopyridin-3-yl)amino)nicotinamide] |
| 10 to 50 | – | NC(=O)c1cc(F)c(N[C@@H]2CCCC[C@@H]2N)nc1Nc1cnc(N2CCOCC2)c2[nH]ccc12 [Example 004-234, 6-(((1R,2S)-2-aminocyclohexyl)amino)-5-fluoro-2-((7-morpholino-1H-pyrrolo[2,3-c]pyridin-4-yl)amino)nicotinamide] |
| – | ≤ 1000 | Cc1cccc(Nc2nc(NCCN)c(F)cc2C(N)=O)c1 [Example 6-2, 6-((2-aminoethyl)amino)-5-fluoro-2-(3-methylphenylamino)nico-tinamide] |
| 100 to 1000 | – | NCCNc1nc(Nc2cccc(Cl)c2)c(C(N)=O)cc1F [Example 006-006, 6-((2-aminoethyl)amino)-2-(3-chlorophenylamino)-5-fluoronico-tinamide] |
| 50 to 100 | – | NCCNc1nc(Nc2cc(Cl)cc(Cl)c2)c(C(N)=O)cc1F [Example 006-007, 6-((2-aminoethyl)amino)-2-((3,5-dichlorophenyl)amino)-5-fluoro-nicotinamide] |
| 50 to 100 | – | CCNc1nc(Nc2ccc3cn[nH]c3c2)c(C(N)=O)cc1F [Example 006-018, 6-(ethylamino)-5-fluoro-2-((1H-indazol-6-yl)amino)nicotinamide] |
| – | ≤ 1000 | CCNc1nc(Nc2ccc3cn[nH]c3c2)c(C(N)=O)cc1F [Example 6-18, 6-(ethylamino)-5-fluoro-2-((1H-indazol-6-yl)amino)nicotinamide] |
| 100 to 1000 | – | CCNc1nc(Nc2cnc3ccccc3c2)c(C(N)=O)cc1F [Example 006-020, 6-(ethylamino)-5-fluoro-2-(quinolin-3-ylamino)nicotinamide] |
| – | ≤ 1000 | CCNc1nc(Nc2cnc3ccccc3c2)c(C(N)=O)cc1F [Example 6-20, 6-(ethylamino)-5-fluoro-2-(quinolin-3-ylamino)nicotinamide] |
| – | ≤ 1000 | Cc1nc2ccc(Nc3nc(NCCN)c(F)cc3C(N)=O)cc2s1 [Example 6-21, 6-((2-aminoethyl)amino)-5-fluoro-2-((2-methylbenzo[d]thiazol-6-yl)amino)nicotinamide] |
| – | ≤ 1000 | Cc1nc2ccc(Nc3nc(NCCN)c(F)cc3C(N)=O)cc2o1 [Example 6-23, 6-((2-aminoethyl)amino)-5-fluoro-2-((2-methylbenzo[d]oxazol-6-yl)amino)nicotinamide] |
| – | ≤ 1000 | CC(=O)Nc1cccc(Nc2nc(NCCN)c(F)cc2C(N)=O)c1 [Example 6-24, 2-((3-acetylaminophenyl)amino)-6-((2-aminoethyl)amino)-5-fluoronicotinamide] |
